Experimental data from patent US7135466B2 (Kirin Beer Kabushiki Kaisha, priority 1999, dated 2006).

Target: T1, PDGF-Ra (Homo sapiens, UniProt P16234)
T1 construct: host or cells: G-292 human osteosarcoma cells
Assay: Inhibitory activity against PDGF-Ra phosphorylation by PDGF-AA stimulation using G292
Type: cell-based
Details: for IC50: > means inhibition at indicated concentration not more than 50%, < and << not less than 50%, read-out: PDGF (E) IC50; for inhibition at 0.1 µM: G292, figure within parentheses in >100( ), at 100 nM, read-out: PDGF (E) inhibition (%) at 100 nM
Experimental: Measurement of Inhibitory Activity Against PDGF-Ra Phosphorylation by PDGF-AA Stimulation Using G292
G-292 human osteosarcoma cells (Dainippon Pharmaceutical Co. Ltd.) were cultured in a DMEM medium (Dainippon Pharmaceutical Co. Ltd.) containing 10% FBS within an incubator containing 5% carbon dioxide until 80% confluent, and the cells were planted at 3×10^4 cells per well in 96-well flat-bottom plates in the same medium containing 0.1% FBS. After cultivation at 37° C. overnight, a solution of a test compound in dimethyl sulfoxide was added to each well, and a reaction was allowed to proceed at 37° C. for one hr.
After the reaction of the test compound, PDGF-AA (Upstate) was added to 50 ng/ml, and the cells were stimulated at 37° C. for 5 min. Thereafter, the cells were solubilized and shaken at room temperature for 20 min.
This solubilized cell solution was transferred to a 96-well plate coated with aniti-phosphotyrosine antibody PY-20, and a reaction was allowed to proceed at 4° C. overnight. Anti-PDGF-Ra (c-20) (Santa Cruz) was added as a primary antibody, and a reaction was allowed to proceed for one hr. GAR (Anti-rabbit Ig, horseradish peroxidase, Amersham) was then added as a secondary antibody, and a reaction was allowed to proceed for one hr. Color development was carried out using a color development kit for peroxidase (Sumitomo Bakelite Co., Ltd.), and the absorbance was measured at 450 nm.

T1 sequence (P16234 24-1089): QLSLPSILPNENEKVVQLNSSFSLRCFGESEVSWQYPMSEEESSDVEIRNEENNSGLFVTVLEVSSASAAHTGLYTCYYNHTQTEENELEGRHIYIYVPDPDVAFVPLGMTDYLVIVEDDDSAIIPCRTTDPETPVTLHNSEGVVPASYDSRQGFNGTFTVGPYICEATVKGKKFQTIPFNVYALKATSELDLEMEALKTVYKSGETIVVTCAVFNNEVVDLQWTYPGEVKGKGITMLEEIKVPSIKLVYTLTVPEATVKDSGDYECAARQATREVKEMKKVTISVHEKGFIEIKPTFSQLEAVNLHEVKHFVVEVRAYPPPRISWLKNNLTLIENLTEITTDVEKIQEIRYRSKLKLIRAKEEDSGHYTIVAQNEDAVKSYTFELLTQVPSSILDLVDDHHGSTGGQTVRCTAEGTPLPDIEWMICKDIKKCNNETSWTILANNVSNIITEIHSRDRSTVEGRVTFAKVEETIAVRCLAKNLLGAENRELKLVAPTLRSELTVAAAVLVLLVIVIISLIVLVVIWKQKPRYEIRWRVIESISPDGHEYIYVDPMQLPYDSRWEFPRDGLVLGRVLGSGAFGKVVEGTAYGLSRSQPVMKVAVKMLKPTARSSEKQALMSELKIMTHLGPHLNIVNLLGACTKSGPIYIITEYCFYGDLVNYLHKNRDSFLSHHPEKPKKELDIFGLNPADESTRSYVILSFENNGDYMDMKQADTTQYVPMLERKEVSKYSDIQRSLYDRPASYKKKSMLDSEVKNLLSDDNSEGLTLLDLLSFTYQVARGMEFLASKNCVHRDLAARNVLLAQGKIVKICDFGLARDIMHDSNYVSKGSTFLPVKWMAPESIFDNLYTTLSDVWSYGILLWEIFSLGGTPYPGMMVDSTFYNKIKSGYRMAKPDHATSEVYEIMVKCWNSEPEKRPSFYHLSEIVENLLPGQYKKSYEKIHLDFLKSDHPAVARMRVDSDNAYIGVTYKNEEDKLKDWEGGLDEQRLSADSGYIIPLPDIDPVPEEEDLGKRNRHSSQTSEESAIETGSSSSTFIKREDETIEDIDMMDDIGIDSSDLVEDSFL

SMILES	IC50 [nM]	inhibition at 0.1 µM [%]
COc1cc2ncnc(Oc3ccc(NC(=S)NC4CCN(Cc5ccccc5)CC4)cc3)c2cc1OC [Example 518, N-{4-[(6,7-Dimethoxy-4-quinazolinyl)oxy]phenyl}-N′-[4-(1-benzylpiperidinyl)]thiourea]	> 100	17
COc1cc2ncnc(Oc3ccc(NC(=S)NCCNC(C)=O)cc3)c2cc1OC [Example 519]	> 100	22
COc1cc2nccc(Oc3ccc(NC(=S)NNC4CCCCC4)c(C)c3C)c2cc1OC [Example 520, N-{4-[(6,7-Dimethoxy-4-quinolyl)oxy]-2,3-dimethylphenyl}-N′-(N-cyclohexylamino)thiourea]	> 100	43
COc1cc2nccc(Oc3ccc(NC(=S)NN4CCCCC4)c(C)c3C)c2cc1OC [Example 521, N-{4-[(6,7-Dimethoxy-4-quinolyl)oxy]-2,3-dimethylphenyl}-N′-(1-piperidinyl)thiourea]	> 100	–
COc1cc2nccc(Oc3cc(C)c(NC(=S)NN4CCCCC4)cc3C)c2cc1OC [Example 522, N-{4-[(6,7-Dimethoxy-4-quinolyl)oxy]-2,5-dimethylphenyl}-N′-(1-piperidinyl)thiourea]	> 100	–
CCN(CC)CCCNC(=S)Nc1cc(C)c(Oc2ccnc3cc(OC)c(OC)cc23)cc1C [Example 551, N-{4-[(6,7-Dimethoxy-4-quinolyl)oxy]-2,5-dimethylphenyl}-N′-(3-diethylaminopropyl)thiourea]	> 100	19
COc1cc2nccc(Oc3cc(C)c(NC(=S)NCCCN4CCCCC4C)cc3C)c2cc1OC (centres unmarked) [Example 554, N-{4-[(6,7-Dimethoxy-4-quinolyl)oxy]-2,5-dimethylphenyl}-N′-[3-(2-methylpiperidinyl)propyl]thiourea]	> 100	14
COc1cc2nccc(Oc3ccc(NC(=O)NC4CCN(CC5CCCCC5)C4)cc3)c2cc1OC (centres unmarked) [Example 585, N-[1-(Cyclohexylmethyl)tetrahydro-1H-3-pyrrolyl]-N′-{4-[(6,7-dimethoxy-4-quinolyl)oxy]phenyl}urea]	> 100	32
CCN(CC)C(C)CNC(=S)Nc1ccc(Oc2ccnc3cc(OC)c(OC)cc23)cc1 (centres unmarked) [Example 588, N-{4-[(6,7-Dimethoxy-4-quinolyl)oxy]phenyl}-N′-(2-diethylaminopropyl)thiourea]	36	–
COc1cc2nccc(Oc3ccc(NC(=O)NN4CCCCC4)c(C)c3C)c2cc1OC [Example 593, N-{4-[(6,7-Dimethoxy-4-quinolyl)oxy]-2,3-dimethylphenyl}-N′-(1-piperidinyl)urea]	51	–
CCN(CC)CCNC(=O)Nc1ccc(Oc2ccnc3cc(OC)c(OC)cc23)cc1C [Example 649, N-[2-(Diethylamino)ethyl]-N′-{4-[(6,7-dimethoxy-4-quinolyl)oxy]-2-methylphenyl}urea]	39	–
CCCCOc1ccc(C(=O)NC(=S)Nc2ccc(Oc3ccnc4cc(OC)c(OC)cc34)c(Cl)c2)cc1 [Example 752, N-(4-Butoxybenzoyl)-N′-{3-chloro-4-[(6,7-dimethoxy-4-quinolyl)oxy]phenyl}thiourea]	> 100	37

Second part, the compound after the results:

IC50 [nM]	inhibition at 0.1 µM [%]	SMILES
19	–	COc1cc2ncnc(Oc3ccc(NC(=O)NCCN(C(C)C)C(C)C)c([N+](=O)[O-])c3)c2cc1OC [Example 659, N-[2-(Diisopropylamino)ethyl]-N′-{4-[(6,7-dimethoxy-4-quinazolinyl)oxy]-2-nitrophenyl}urea]
83	–	COc1ccc(CCC(=O)NC(=S)Nc2ccc(Oc3ccnc4cc(OC)c(OC)cc34)c(Cl)c2)cc1OC [Example 712, N-{3-Chloro-4-[(6,7-dimethoxy-4-quinolyl)oxy]phenyl}-N′-[3-(3,4-dimethoxyphenyl)propanoyl]thiourea]
> 100	8	COc1cc2nccc(Oc3cc(C)c(NC(=S)NC(=O)c4cc(C)oc4C)cc3C)c2cc1OC [Example 717, N-{4-[(6,7-Dimethoxy-4-quinolyl)oxy]-2,5-dimethylphenyl}-N′-[(2 5-dimethyl-3-furyl)carbonyl]thiourea]
52	–	COc1cc2nccc(Oc3ccc(NC(=S)NC(=O)CCCCc4ccccc4)cc3)c2cc1OC [Example 727, N-{4-[(6,7-Dimethoxy-4-quinolyl)oxy]phenyl}-N′-(5-phenylpentanoyl)thiourea]
48	–	COc1cc2nccc(Oc3ccc(NC(=S)NC(=O)CCc4ccccc4C)cc3Cl)c2cc1OC [Example 732, N-{3-Chloro-4-[(6,7-dimethoxy-4-quinolyl)oxy]phenyl}-N′-[3-(2-methylphenyl)propanoyl]thiourea]
15	–	COc1cc2nccc(Oc3ccc(NC(=S)NC(=O)Cc4ccccc4[N+](=O)[O-])cc3)c2cc1OC [Example 735, N-{4-[(6,7-Dimethoxy-4-quinolyl)oxy]phenyl}-N′-[2-(2-nitrophenyl)acetyl]thiourea]
72	–	COc1cc2nccc(Oc3ccc(NC(=S)NC(=O)Cc4ccccc4[N+](=O)[O-])cc3Cl)c2cc1OC [Example 736, N-{3-Chloro-4-[(6,7-dimethoxy-4-quinolyl)oxy]phenyl}-N′-[2-(2-nitrophenyl)acetyl]thiourea]
49	–	CCC(Oc1ccccc1)C(=O)NC(=S)Nc1ccc(Oc2ccnc3cc(OC)c(OC)cc23)cc1 (centres unmarked) [Example 741, N-{4-[(6,7-Dimethoxy-4-quinolyl)oxy]phenyl}-N′-(2-phenoxybutanoyl)thiourea]
92	–	CCC(Oc1ccccc1)C(=O)NC(=S)Nc1ccc(Oc2ccnc3cc(OC)c(OC)cc23)c(Cl)c1 (centres unmarked) [Example 742, N-{3-Chloro-4-[(6,7-dimethoxy-4-quinolyl)oxy]phenyl}-N′-(2-phenoxybutanoyl)thiourea]
40	–	COc1cc2nccc(Oc3ccc(NC(=S)NC(=O)[C@H](C)c4ccccc4)cc3Cl)c2cc1OC [Example 744, N-{3-Chloro-4-[(6,7-dimethoxy-4-quinolyl)oxy]phenyl}-N′-[(2R)-2-phenylpropanoyl]thiourea]
53	–	COc1cc2nccc(Oc3ccc(NC(=S)NC(=O)C(C)Oc4ccccc4)cc3)c2cc1OC (centres unmarked) [Example 745, N-{4-[(6,7-Dimethoxy-4-quinolyl)oxy]phenyl}-N′-(2-phenoxypropanoyl)thiourea]
> 100	31	COc1cc2nccc(Oc3ccc(NC(=S)NC(=O)C(C)Oc4ccccc4)cc3Cl)c2cc1OC (centres unmarked) [Example 746, N-{3-Chloro-4-[(6,7-dimethoxy-4-quinolyl)oxy]phenyl}-N′-(2-phenoxypropanoyl)thiourea]
85	–	CCC(C(=O)NC(=S)Nc1ccc(Oc2ccnc3cc(OC)c(OC)cc23)c(Cl)c1)c1ccccc1 (centres unmarked) [Example 748, N-{3-Chloro-4-[(6,7-dimethoxy-4-quinolyl)oxy]phenyl}-N′-(2-phenylbutanoyl)thiourea]
> 100	7	CCCCCOc1ccc(C(=O)NC(=S)Nc2ccc(Oc3ccnc4cc(OC)c(OC)cc34)c(Cl)c2)cc1 [Example 754, N-{3-Chloro-4-[(6,7-dimethoxy-4-quinolyl)oxy]phenyl}-N′-[4-(pentyloxy)benzoyl]thiourea]
> 100	3	CCCCCCOc1ccc(C(=O)NC(=S)Nc2ccc(Oc3ccnc4cc(OC)c(OC)cc34)cc2)cc1 [Example 755, N-{4-[(6,7-Dimethoxy-4-quinolyl)oxy]phenyl}-N′-[4-(hexyloxy)benzoyl]thiourea]
